What was measured:
[1] = system: rice leafroller (Cnaphalocrocis medinalis); experiment: Insecticidal effect on rice leafroller (Test Example 3); type: in vivo; conditions: 500 ppm, four days after inoculation, 25° C., humidity 70%; for Insecticidal effect on rice leafroller (Test Example 3), judged grade: rice lamina dip, third-instar larvae; for Insecticidal effect, Test Example 3: rice leafroller third-instar larvae, rice lamina immersed
Outline: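 Insecticidal effect is judged by a predefined criterion from dead/alive counts four days after infesting air-dried lamina with third-instar larvae, kept on moistened filter paper at 25° C, 70% humidity.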

[2] = system: diamondback moth (Plutella xylostella); experiment: Insecticidal effect on diamondback moth (Test Example 1); type: in vivo; conditions: for Insecticidal effect on diamondback moth (Test Example 1), judged grade: mortality judged according to the criterion shown in Test Example 1; for Insecticidal effect, Test Example 1: diamondback moth, mortality judged by criterion of Test Example 1
Outline: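 Triplicate groups of 10 insects: eggs laid on Chinese cabbage seedling by adults, seedling immersed then air-dried, kept at 25° C. Day-6 hatch counts gave mortality, rated by criterion.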

CC(C)(C)NC(=O)c1ccccc1C(=O)Nc1ccc(C(F)(F)F)cc1 [compound 928]
Insecticidal effect on rice leafroller (Test Example 3), judged grade [1]: A (100) | Insecticidal effect on diamondback moth (Test Example 1), judged grade [2]: A (100)

CN(C(=O)c1ccccc1C(=O)NC(C)(C)C)c1ccc(OC(F)(F)F)cc1 [compound 933]
Insecticidal effect on rice leafroller (Test Example 3), judged grade [1]: A (100) | Insecticidal effect on diamondback moth (Test Example 1), judged grade [2]: A (100)

CCCCNC(=O)c1cccc(I)c1C(=O)Nc1ccc(C(F)(F)C(F)(F)F)cc1C [compound 946]
Insecticidal effect, Test Example 3 [1]: A (100) | Insecticidal effect, Test Example 1 [2]: A (100)

CCCc1cc(I)ccc1NC(=O)c1cccc(I)c1C(=O)NC(C)C [compound 952]
Insecticidal effect, Test Example 3 [1]: A (100) | Insecticidal effect, Test Example 1 [2]: A (100)

Cc1cc(C(F)(F)C(F)(F)F)ccc1NC(=O)c1c(C)cccc1C(=O)NC(C)C [compound 954]
Insecticidal effect, Test Example 3 [1]: A (100) | Insecticidal effect, Test Example 1 [2]: A (100)

Cc1cc(C(F)(F)C(F)(F)F)ccc1NC(=O)c1c(C)cccc1C(=O)NC(C)(C)C [compound 956]
Insecticidal effect, Test Example 3 [1]: A (100) | Insecticidal effect, Test Example 1 [2]: A (100)

Cc1cc(OC(F)(F)F)ccc1NC(=O)c1c(I)cccc1C(=O)NC(C)(C)C [compound 958]
Insecticidal effect, Test Example 3 [1]: A (100) | Insecticidal effect, Test Example 1 [2]: A (100)

CCCNC(=O)c1c(I)cccc1C(=O)Nc1cccc(Cl)c1C [compound 959]
Insecticidal effect, Test Example 3 [1]: A (100) | Insecticidal effect, Test Example 1 [2]: A (100)

CCCCc1cc(I)ccc1NC(=O)c1cccc(I)c1C(=O)NC(C)C [compound 966]
Insecticidal effect, Test Example 3 [1]: B (99-90) | Insecticidal effect, Test Example 1 [2]: A (100)

CC(C)NC(=O)c1ccccc1C(=O)Nc1ccc2c(c1)OC(F)(F)C(F)(F)O2 [compound 975]
Insecticidal effect, Test Example 3 [1]: A (100) | Insecticidal effect, Test Example 1 [2]: A (100)

COCCNC(=O)c1cccc(I)c1C(=O)Nc1ccc(C(F)(F)C(F)(F)F)cc1C [compound 982]
Insecticidal effect, Test Example 3 [1]: C (89-80) | Insecticidal effect, Test Example 1 [2]: A (100)

COCCCNC(=O)c1cccc(I)c1C(=O)Nc1ccc(C(F)(F)C(F)(F)F)cc1C [compound 986]
Insecticidal effect, Test Example 3 [1]: A (100) | Insecticidal effect, Test Example 1 [2]: A (100)

C#CCNC(=O)c1cccc(I)c1C(=O)Nc1ccc(C(F)(F)C(F)(F)F)cc1C [compound 990]
Insecticidal effect, Test Example 3 [1]: A (100) | Insecticidal effect, Test Example 1 [2]: A (100)

Cc1cc(C(F)(F)C(F)(F)F)ccc1NC(=O)c1cccc(I)c1C(=O)NC1CCCCC1 [compound 993]
Insecticidal effect, Test Example 3 [1]: A (100) | Insecticidal effect, Test Example 1 [2]: A (100)

CC(C)NC(=O)c1ccccc1C(=O)Nc1ccc(SC(F)(F)F)cc1 [compound 995]
Insecticidal effect, Test Example 3 [1]: A (100) | Insecticidal effect, Test Example 1 [2]: A (100)

CC(C)NC(=O)c1ccccc1C(=O)Nc1ccc([S+]([O-])C(F)(F)F)cc1 (stereo not shown) [compound 999]
Insecticidal effect, Test Example 3 [1]: A (100) | Insecticidal effect, Test Example 1 [2]: A (100)

CCC(C)NC(=O)c1cccc(I)c1C(=O)Nc1ccc(C(F)(F)C(F)(F)F)cc1C (stereo not shown) [compound 1008]
Insecticidal effect, Test Example 3 [1]: A (100) | Insecticidal effect, Test Example 1 [2]: A (100)

CCCC(C)NC(=O)c1cccc(I)c1C(=O)Nc1ccc(C(F)(F)C(F)(F)F)cc1C (stereo not shown) [compound 1010]
Insecticidal effect, Test Example 3 [1]: A (100) | Insecticidal effect, Test Example 1 [2]: A (100)

CCC(COC)NC(=O)c1cccc(I)c1C(=O)Nc1ccc(C(F)(F)C(F)(F)F)cc1C (stereo not shown) [compound 1014]
Insecticidal effect, Test Example 3 [1]: A (100) | Insecticidal effect, Test Example 1 [2]: A (100)

CC(C)(C)NC(=O)c1ccccc1C(=O)Nc1ccc(OC(F)(F)F)cc1Cl [compound 1021]
Insecticidal effect, Test Example 3 [1]: A (100) | Insecticidal effect, Test Example 1 [2]: A (100)

CCC(C)CNC(=O)c1c(I)cccc1C(=O)Nc1ccc(C(F)(F)C(F)(F)F)cc1C (stereo not shown) [compound 1026]
Insecticidal effect, Test Example 3 [1]: A (100) | Insecticidal effect, Test Example 1 [2]: A (100)

COCC(C)NC(=O)c1cccc(I)c1C(=O)Nc1ccc(C(F)(F)C(F)(F)F)cc1C (stereo not shown) [compound 1032]
Insecticidal effect, Test Example 3 [1]: A (100) | Insecticidal effect, Test Example 1 [2]: A (100)

CCN(CC)C(=O)c1cccc(I)c1C(=O)Nc1ccc(C(F)(F)C(F)(F)F)cc1C [compound 1036]
Insecticidal effect, Test Example 3 [1]: A (100) | Insecticidal effect, Test Example 1 [2]: A (100)

Cc1cc(C(F)(F)C(F)(F)F)ccc1NC(=O)c1cccc(I)c1C(=O)N(C)CC(C)C [compound 1043]
Insecticidal effect, Test Example 3 [1]: A (100) | Insecticidal effect, Test Example 1 [2]: A (100)

Cc1cc(C(F)(F)C(F)(F)F)ccc1NC(=O)c1cccc(I)c1C(=O)N1CCCC1 [compound 1047]
Insecticidal effect, Test Example 3 [1]: A (100) | Insecticidal effect, Test Example 1 [2]: A (100)

CCNC(=O)c1cccc(I)c1C(=O)Nc1ccc(OC(F)(F)C(F)F)cc1C [compound 1057]
Insecticidal effect, Test Example 3 [1]: A (100) | Insecticidal effect, Test Example 1 [2]: A (100)

CCCNC(=O)c1cccc(I)c1C(=O)Nc1ccc(C(F)(C(F)(F)F)C(F)(F)F)cc1C [compound 1076]
Insecticidal effect, Test Example 3 [1]: A (100) | Insecticidal effect, Test Example 1 [2]: A (100)

CC(C)NC(=O)c1ccccc1C(=O)Nc1ccc(S(=O)(=O)C(F)(F)F)cc1 [compound 1077]
Insecticidal effect, Test Example 3 [1]: A (100) | Insecticidal effect, Test Example 1 [2]: A (100)

Cc1cc(OC(F)(F)C(F)(F)c2ccccc2)ccc1NC(=O)c1ccccc1C(=O)NC(C)C [compound 1086]
Insecticidal effect, Test Example 3 [1]: A (100) | Insecticidal effect, Test Example 1 [2]: A (100)

Cc1cc(OC(F)(F)C(F)(F)c2ccccc2)ccc1NC(=O)c1cccc(I)c1C(=O)NC(C)C [compound 1088]
Insecticidal effect, Test Example 3 [1]: A (100) | Insecticidal effect, Test Example 1 [2]: A (100)

Cc1cc(OC(F)(F)C(F)(F)c2ccccc2)ccc1NC(=O)c1cccc([N+](=O)[O-])c1C(=O)NC(C)C [compound 1089]
Insecticidal effect, Test Example 3 [1]: A (100) | Insecticidal effect, Test Example 1 [2]: A (100)

CC(C)NC(=O)c1ccccc1C(=O)Nc1ccc2c(c1)OC(F)(F)O2 [compound 1099]
Insecticidal effect, Test Example 3 [1]: A (100) | Insecticidal effect, Test Example 1 [2]: A (100)

CC(C)(C)NC(=O)c1ccccc1C(=O)Nc1ccc2c(c1)OC(F)(F)O2 [compound 1103]
Insecticidal effect, Test Example 3 [1]: A (100) | Insecticidal effect, Test Example 1 [2]: A (100)

CC(C)NC(=O)c1ccccc1C(=O)Nc1ccc(SC(F)(F)Br)cc1 [compound 1106]
Insecticidal effect, Test Example 3 [1]: A (100) | Insecticidal effect, Test Example 1 [2]: A (100)

CC(C)NC(=O)c1ccccc1C(=O)Nc1ccc([S+]([O-])C(F)(F)Br)cc1 (stereo not shown) [compound 1107]
Insecticidal effect, Test Example 3 [1]: A (100) | Insecticidal effect, Test Example 1 [2]: A (100)

CC(C)NC(=O)c1c(C(=O)Nc2ccc(SC(F)(F)Br)cc2)cccc1[N+](=O)[O-] [compound 1108]
Insecticidal effect, Test Example 3 [1]: A (100) | Insecticidal effect, Test Example 1 [2]: A (100)

CC(C)NC(=O)c1c(C(=O)Nc2ccc([S+]([O-])C(F)(F)Br)cc2)cccc1[N+](=O)[O-] (stereo not shown) [compound 1109]
Insecticidal effect, Test Example 3 [1]: A (100) | Insecticidal effect, Test Example 1 [2]: A (100)

CC(C)NC(=O)c1c(Cl)cccc1C(=O)Nc1ccc([S+]([O-])C(F)(F)Br)cc1 (stereo not shown) [compound 1111]
Insecticidal effect, Test Example 3 [1]: A (100) | Insecticidal effect, Test Example 1 [2]: A (100)
